Molecules are shown by their SMILES. Numbers after ± are expanded uncertainties.

This data set can be described thus: refractive index (Na D-line) (dimensionless). The settings on record: 101.33 kPa, Liquid, Standard Abbe refractometry.

In the case of `c1ccccc1` [benzene], for the setting “303.15 K”, the refractive index (commonly the speed of light in vacuum divided by its phase velocity in the sample) came to 1.4954 ± 0.0009.
`CO` [methanol]: the refractive index (293.15 K) was 1.3288 ± 0.0009.

The record behind these values is the NIST ThermoML archive (doi:10.1016/j.jct.2006.06.002).
